Measurements taken from ChEMBL document CHEMBL1150101, “Novel antiplatelet naphthalene from Rhamnus nakaharai” (J Nat Prod, 1995).

Legend:
[1] = Antiplatelet activity against washed rabbit platelet assessed as arachidonic acid-induced platelet aggregation at 300 uM administered 3 mins before arachidonic acid challenge; type: functional, Oryctolagus cuniculus
[2] = Antiplatelet activity against washed rabbit platelet assessed as thrombin-induced platelet aggregation at 300 uM administered 3 mins before thrombin challenge; type: functional, Oryctolagus cuniculus
[3] = Antiplatelet activity against washed rabbit platelet assessed as collagen-induced platelet aggregation at 300 uM administered 3 mins before collagen challenge; type: functional, Oryctolagus cuniculus
[4] = Antiplatelet activity against washed rabbit platelet assessed as arachidonic acid-induced platelet aggregation; type: functional, cell-based; settings: Oryctolagus cuniculus
[5] = Antiplatelet activity against human platelet assessed as epinephrine-induced platelet aggregation at 20 uM administered 3 mins before epinephrine challenge; type: functional
[6] = Antiplatelet activity against washed rabbit platelet assessed as PAF-induced platelet aggregation at 300 uM administered 3 mins before PAF challenge; type: functional, Oryctolagus cuniculus
[7] = Antiplatelet activity against human platelet assessed as epinephrine-induced platelet aggregation at 50 uM administered 3 mins before epinephrine challenge; type: functional
[8] = Antiplatelet activity against washed rabbit platelet assessed as collagen-induced platelet aggregation at 50 uM administered 3 mins before collagen challenge; type: functional, Oryctolagus cuniculus
[9] = Antiplatelet activity against human platelet assessed as epinephrine-induced platelet aggregation administered 3 mins before epinephrine challenge; type: functional
[10] = Antiplatelet activity against washed rabbit platelet assessed as arachidonic acid-induced platelet aggregation at 50 uM administered 3 mins before arachidonic acid challenge; type: functional, Oryctolagus cuniculus
[11] = Antiplatelet activity against washed rabbit platelet assessed as thrombin-induced platelet aggregation at 50 uM administered 3 mins before thrombin challenge; type: functional, Oryctolagus cuniculus
[12] = Antiplatelet activity against washed rabbit platelet assessed as PAF-induced platelet aggregation at 50 uM administered 3 mins before PAF challenge; type: functional, Oryctolagus cuniculus
[13] = Antiplatelet activity against human platelet assessed as epinephrine-induced platelet aggregation at 100 uM administered 3 mins before epinephrine challenge; type: functional
[14] = Antiplatelet activity against washed rabbit platelet assessed as thrombin-induced platelet aggregation at 400 uM administered 3 mins before thrombin challenge; type: functional, Oryctolagus cuniculus
[15] = Antiplatelet activity against washed rabbit platelet assessed as PAF-induced platelet aggregation at 400 uM administered 3 mins before PAF challenge; type: functional, Oryctolagus cuniculus
[16] = Antiplatelet activity against washed rabbit platelet assessed as arachidonic acid-induced platelet aggregation at 400 uM administered 3 mins before arachidonic acid challenge; type: functional, Oryctolagus cuniculus
[17] = Antiplatelet activity against washed rabbit platelet assessed as collagen-induced platelet aggregation at 400 uM administered 3 mins before collagen challenge; type: functional, Oryctolagus cuniculus

SMILES	Activity [1] [%]	Activity [2] [%]	Activity [3] [%]	Activity [6] [%]	further results
COc1cc(OC(C)=O)cc2cc(C)c(C(C)=O)c(OC(C)=O)c12 [ISOTORACHRYSONE PERACETATE]	0	82.7	16.8	86.7	IC50 [4]: 5.1 µM; Activity [5]: 83%; Activity [7]: 13%
COc1cc(O)c2c(O)c3c(cc2c1)COC3=O	22.1	88.1	41.7	80	
COc1c(-c2ccc(O)c(O)c2)oc2cc(O)cc(O)c2c1=O [3-O-METHYLQUERCETIN]	0	81.2	5.4	50.1	
CC(=O)Oc1ccccc1C(=O)O [ASPIRIN]					Activity [8]: 85.4%; Activity [9]: 39.6%; Activity [10]: 0%; Activity [11]: 91.9%; Activity [12]: 90.5%
COc1c(-c2ccc(OC(C)=O)c(OC(C)=O)c2)oc2cc(OC(C)=O)cc(OC(C)=O)c2c1=O	0	64.9	0	0	
COc1cc(O)cc2cc(C)c(C(C)=O)c(O)c12 [ISOTORACHRYSONE]					Activity [13]: 20.2%; Activity [14]: 92.2%; Activity [15]: 94.2%; Activity [16]: 0%; Activity [17]: 39.1%
